Experimental findings from patent publication US10168342B2, “Lipid probes and uses thereof” (THE SCRIPPS RESEARCH INSTITUTE, priority 2015, dated 2019) are described below.

Assay in all cases: isoTOP-ABPP mapping of AEA-DA-modified peptides in Neuro2a cells
Holding throughout (assay type): cell-based

Test [1] has as its target T1, AEA-DA-modified peptides in Neuro2a cells (Mus musculus, UniProt P47867).
T1 construct: endogenous in cells; host or cells: Neuro2a
The note with it: AEA-DA-modified peptide SCG3 P47867 178-203, SEQ ID NO 97; probe 100 μM, 12 replicates.

The target in test [2] is T2, AEA-DA-modified peptides in Neuro2a cells (Mus musculus, UniProt P18242).
T2 construct: endogenous in cells; host or cells: Neuro2a
T2 sequence (P18242 65-410): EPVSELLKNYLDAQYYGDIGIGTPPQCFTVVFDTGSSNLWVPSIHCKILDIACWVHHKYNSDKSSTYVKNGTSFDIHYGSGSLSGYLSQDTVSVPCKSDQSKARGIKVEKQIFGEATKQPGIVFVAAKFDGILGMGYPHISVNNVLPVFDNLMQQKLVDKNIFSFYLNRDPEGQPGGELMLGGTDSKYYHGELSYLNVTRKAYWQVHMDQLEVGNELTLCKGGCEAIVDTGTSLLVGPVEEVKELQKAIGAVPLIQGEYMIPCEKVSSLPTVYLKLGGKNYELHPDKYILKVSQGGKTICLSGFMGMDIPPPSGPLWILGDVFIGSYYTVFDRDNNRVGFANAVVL
The note with it: AEA-DA-modified peptide CTSD P18242 312-330, SEQ ID NO 27; probe 100 μM, 12 replicates.

Test [3] addresses T3, AEA-DA-modified peptides in Neuro2a cells (Mus musculus, UniProt Q8BMK4).
T3 construct: endogenous in cells; host or cells: Neuro2a
Particulars: AEA-DA-modified peptide CKAP4 Q8BMK4 292-307, SEQ ID NO 23; probe 100 μM, 12 replicates.

Test [4] concerns the target T4, AEA-DA-modified peptides in Neuro2a cells (Mus musculus, UniProt Q9D2R6).
T4 construct: endogenous in cells; host or cells: Neuro2a
Particulars: AEA-DA-modified peptide CCDC56 Q9D2R6 84-94, SEQ ID NO 22; probe 100 μM, 12 replicates.

Test [5] concerns the target T5, AEA-DA-modified peptides in Neuro2a cells (Mus musculus, UniProt Q9QUM9).
T5 construct: endogenous in cells; host or cells: Neuro2a
Particulars: AEA-DA-modified peptide PSMA6 Q9QUM9 103-117, SEQ ID NO 89; probe 100 μM, 12 replicates.

In test [6] the target is T6, AEA-DA-modified peptides in Neuro2a cells (Mus musculus, UniProt P84078).
T6 construct: endogenous in cells; host or cells: Neuro2a
T6 sequence (P84078 whole entry): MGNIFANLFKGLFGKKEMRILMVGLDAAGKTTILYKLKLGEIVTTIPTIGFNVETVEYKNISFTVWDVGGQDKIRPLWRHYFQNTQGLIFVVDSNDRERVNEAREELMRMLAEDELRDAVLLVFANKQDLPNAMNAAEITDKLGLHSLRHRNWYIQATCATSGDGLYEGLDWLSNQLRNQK
Particulars: AEA-DA-modified peptide ARF1 P84078 39-60, SEQ ID NO 10; probe 100 μM, 12 replicates.

Test [7] concerns the target T7, AEA-DA-modified peptides in Neuro2a cells (Mus musculus, UniProt O55022).
T7 construct: endogenous in cells; host or cells: Neuro2a
Particulars: probe 100 μM, 12 replicates.

The target of test [8] is T8, AEA-DA-modified peptides in Neuro2a cells (Mus musculus, UniProt Q9JKF7).
T8 construct: endogenous in cells; host or cells: Neuro2a
The note with it: AEA-DA-modified peptide MRPL39 Q9JKF7 154-166, SEQ ID NO 61; probe 100 μM, 12 replicates.

Test [9] concerns the target T9, AEA-DA-modified peptides in Neuro2a cells (Mus musculus, UniProt Q9CPQ8).
T9 construct: endogenous in cells; host or cells: Neuro2a
The note with it: AEA-DA-modified peptide ATP5L Q9CPQ8 36-55, SEQ ID NO 19; probe 100 μM, 12 replicates.

Test [10] concerns the target T10, AEA-DA-modified peptides in Neuro2a cells (Mus musculus, UniProt Q8BGC4).
T10 construct: endogenous in cells; host or cells: Neuro2a
The note with it: AEA-DA-modified peptide ZADH2 Q8BGC4 86-115, SEQ ID NO 122; probe 100 μM, 12 replicates.

Test [11] has as its target T11, AEA-DA-modified peptides in Neuro2a cells (Mus musculus, UniProt P58281).
T11 construct: endogenous in cells; host or cells: Neuro2a
Particulars: AEA-DA-modified peptide OPA1 P58281 801-819, SEQ ID NO 74; probe 100 μM, 12 replicates.

Test [12] has as its target T12, AEA-DA-modified peptides in Neuro2a cells (Mus musculus, UniProt Q8C4B4).
T12 construct: endogenous in cells; host or cells: Neuro2a
The note with it: AEA-DA-modified peptide UNC119B Q8C4B4 142-151, SEQ ID NO 118; probe 100 μM, 12 replicates.

T7 sequence (O55022 whole entry): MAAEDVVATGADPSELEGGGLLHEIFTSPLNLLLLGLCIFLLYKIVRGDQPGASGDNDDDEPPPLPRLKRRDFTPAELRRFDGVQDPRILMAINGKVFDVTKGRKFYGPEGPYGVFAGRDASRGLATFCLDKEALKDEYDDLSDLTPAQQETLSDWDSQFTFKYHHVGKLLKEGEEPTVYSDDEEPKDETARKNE
T10 sequence (Q8BGC4 whole entry): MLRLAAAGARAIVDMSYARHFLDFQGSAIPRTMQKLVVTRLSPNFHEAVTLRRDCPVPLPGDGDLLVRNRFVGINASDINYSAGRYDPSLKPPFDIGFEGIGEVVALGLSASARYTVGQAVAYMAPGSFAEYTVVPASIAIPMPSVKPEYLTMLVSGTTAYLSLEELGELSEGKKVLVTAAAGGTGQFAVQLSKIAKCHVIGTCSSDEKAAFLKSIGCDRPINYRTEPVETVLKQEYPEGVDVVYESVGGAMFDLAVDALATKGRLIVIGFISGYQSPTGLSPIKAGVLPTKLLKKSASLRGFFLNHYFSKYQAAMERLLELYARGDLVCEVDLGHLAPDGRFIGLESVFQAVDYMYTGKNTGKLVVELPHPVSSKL
T5 sequence (Q9QUM9 whole entry): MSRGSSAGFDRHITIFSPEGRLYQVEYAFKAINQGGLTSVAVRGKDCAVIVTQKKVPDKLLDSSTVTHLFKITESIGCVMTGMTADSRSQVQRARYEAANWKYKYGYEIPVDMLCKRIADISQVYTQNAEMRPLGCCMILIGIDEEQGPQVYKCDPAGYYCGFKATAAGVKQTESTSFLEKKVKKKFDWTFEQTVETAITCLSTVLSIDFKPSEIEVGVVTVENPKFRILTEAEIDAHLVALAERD
T11 sequence (P58281 88-960): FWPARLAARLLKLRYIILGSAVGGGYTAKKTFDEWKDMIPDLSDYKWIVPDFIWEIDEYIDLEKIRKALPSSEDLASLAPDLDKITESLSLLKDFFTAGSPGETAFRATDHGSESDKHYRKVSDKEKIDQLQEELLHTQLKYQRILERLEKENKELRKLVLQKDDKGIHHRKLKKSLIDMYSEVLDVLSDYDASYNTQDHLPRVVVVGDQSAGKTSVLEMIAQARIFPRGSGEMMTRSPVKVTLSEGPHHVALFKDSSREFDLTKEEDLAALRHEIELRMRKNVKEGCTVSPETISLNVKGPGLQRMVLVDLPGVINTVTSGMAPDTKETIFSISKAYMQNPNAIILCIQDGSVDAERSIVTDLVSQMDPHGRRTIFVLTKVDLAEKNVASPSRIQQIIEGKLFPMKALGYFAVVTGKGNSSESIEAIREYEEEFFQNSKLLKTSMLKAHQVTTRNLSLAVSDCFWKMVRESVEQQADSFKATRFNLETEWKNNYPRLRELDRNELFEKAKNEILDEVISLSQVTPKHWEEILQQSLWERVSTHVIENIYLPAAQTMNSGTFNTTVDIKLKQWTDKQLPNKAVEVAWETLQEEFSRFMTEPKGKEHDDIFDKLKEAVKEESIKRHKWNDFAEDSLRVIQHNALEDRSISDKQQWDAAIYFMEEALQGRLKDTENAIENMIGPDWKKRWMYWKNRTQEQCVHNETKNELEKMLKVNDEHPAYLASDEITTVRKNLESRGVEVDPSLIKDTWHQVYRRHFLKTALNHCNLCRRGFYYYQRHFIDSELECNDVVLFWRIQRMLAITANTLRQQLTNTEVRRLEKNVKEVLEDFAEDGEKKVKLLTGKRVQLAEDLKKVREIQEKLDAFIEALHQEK
T9 sequence (Q9CPQ8 whole entry): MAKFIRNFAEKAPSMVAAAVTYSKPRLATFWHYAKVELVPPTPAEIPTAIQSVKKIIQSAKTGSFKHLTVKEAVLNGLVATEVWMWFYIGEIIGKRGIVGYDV
T1 sequence (P47867 23-471): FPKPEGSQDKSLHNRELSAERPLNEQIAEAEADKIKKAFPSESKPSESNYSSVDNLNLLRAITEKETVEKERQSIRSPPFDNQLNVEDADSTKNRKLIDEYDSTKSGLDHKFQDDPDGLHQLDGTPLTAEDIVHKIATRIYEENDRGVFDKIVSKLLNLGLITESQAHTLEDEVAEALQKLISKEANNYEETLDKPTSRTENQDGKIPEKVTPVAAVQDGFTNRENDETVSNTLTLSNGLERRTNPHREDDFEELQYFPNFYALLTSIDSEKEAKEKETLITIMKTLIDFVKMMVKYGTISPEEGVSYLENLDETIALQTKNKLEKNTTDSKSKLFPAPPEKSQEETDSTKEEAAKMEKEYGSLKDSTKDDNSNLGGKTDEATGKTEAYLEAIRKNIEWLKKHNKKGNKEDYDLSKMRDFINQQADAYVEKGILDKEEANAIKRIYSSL
T4 sequence (Q9D2R6 whole entry): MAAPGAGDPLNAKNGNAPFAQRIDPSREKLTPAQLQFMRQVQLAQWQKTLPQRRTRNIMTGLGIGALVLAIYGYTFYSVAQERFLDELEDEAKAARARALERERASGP
T3 sequence (Q8BMK4 whole entry): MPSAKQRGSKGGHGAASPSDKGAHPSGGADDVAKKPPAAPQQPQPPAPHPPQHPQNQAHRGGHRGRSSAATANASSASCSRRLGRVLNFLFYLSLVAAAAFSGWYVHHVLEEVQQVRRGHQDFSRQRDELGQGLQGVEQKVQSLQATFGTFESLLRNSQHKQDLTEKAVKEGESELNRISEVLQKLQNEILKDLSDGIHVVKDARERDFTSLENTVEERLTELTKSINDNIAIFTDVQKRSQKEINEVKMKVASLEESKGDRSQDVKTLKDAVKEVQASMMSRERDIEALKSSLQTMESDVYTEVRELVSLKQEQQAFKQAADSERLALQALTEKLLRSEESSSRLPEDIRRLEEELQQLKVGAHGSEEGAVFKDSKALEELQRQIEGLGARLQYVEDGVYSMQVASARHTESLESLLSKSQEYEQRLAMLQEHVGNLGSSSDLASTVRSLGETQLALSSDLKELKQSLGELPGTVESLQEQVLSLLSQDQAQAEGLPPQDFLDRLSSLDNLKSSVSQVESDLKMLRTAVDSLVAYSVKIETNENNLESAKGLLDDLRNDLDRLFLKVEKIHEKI
T12 sequence (Q8C4B4 whole entry): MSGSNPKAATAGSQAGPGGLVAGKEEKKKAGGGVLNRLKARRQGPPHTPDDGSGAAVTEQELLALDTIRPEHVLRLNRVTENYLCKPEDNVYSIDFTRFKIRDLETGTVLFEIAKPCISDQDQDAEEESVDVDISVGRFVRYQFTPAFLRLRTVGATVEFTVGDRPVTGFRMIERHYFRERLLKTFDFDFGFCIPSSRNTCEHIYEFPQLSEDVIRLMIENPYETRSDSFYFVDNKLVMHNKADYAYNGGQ

Consider `C#CCCCC1(CC/C=C\C/C=C\C/C=C\CCCC(=O)NCCO)N=N1` [AEA-DA, (5Z,8Z,11Z)-N-(2-hydroxyethyl)-14-(3-(pent-4-yn-1-yl)-3H-diazirin-3-yl)tetradeca-5,8,11-trienamide], for which the Times observed in test [1] is 4; in test [2], 12; in [3] it was 7; in test [4], 2; in [5] it was 8; in test [6] it was 9. Besides, the Times observed came out at 2 in test [7] (AEA-DA-modified peptide PGRMC1 O55022 48-68, SEQ ID NO 82); 12 in test [7] (AEA-DA-modified peptide PGRMC1 O55022 106-120, SEQ ID NO 81); 4 in test [8]; 3 in test [9]; 8 in test [10]; 2 in test [11]. The compound further registered a Times observed in [12] of 3.
